According to patent publication US11116760B2 (Gilead Sciences, Inc., priority 2018, dated 2021):

Biological target: α4β7 integrin (Homo sapiens (Human), UniProt P13612+P26010)
Assay: α4β7 Integrin Cell Capture Assay
Format: cell-based
Experimental: α4β7 Integrin Cell Capture Assay
The potency of inhibitors in preventing α4β7 integrin interaction with MadCAM-1 was measured by monitoring the capture of α4β7 integrin expressing cells on a recombinant MadCAM-1 extracellular domain-coated plate. […] The plates were then washed with PBS and blocked with 3% BSA for 2 hours before being washed again.
RPM18866 cells were spun down and re-suspended in assay medium (DMEM+0.5% FBS+0.5 mM MnCl2) at a density of 0.5×10^6 cells/mL. […] The plates were incubated at 37° C. for 1 hour. 50 μL of cells were transferred to the blocked, MadCAM-1-coated plates and incubated for 30 minutes at 37° C. […] The plates were incubated for 90 minutes at room temperature. The plates were then washed 3 times with 70 μL of PBS per well and imaged on a Cellomics ArrayScan instrument. The cells that were bound to the plate were counted and plotted against the compound concentration to determine the EC50 of the test compounds.

[1] = Table 2, capture of α4β7 expressing RPM18866 cells on MadCAM-1 extracellular domain-coated plate
[2] = RPMI8866 cells captured on MadCAM-1 extracellular domain-coated plate
[3] = Table 1, capture of α4β7 expressing RPM18866 cells on MadCAM-1 extracellular domain-coated plate

Chain of α4β7 integrin (P13612 34-1032): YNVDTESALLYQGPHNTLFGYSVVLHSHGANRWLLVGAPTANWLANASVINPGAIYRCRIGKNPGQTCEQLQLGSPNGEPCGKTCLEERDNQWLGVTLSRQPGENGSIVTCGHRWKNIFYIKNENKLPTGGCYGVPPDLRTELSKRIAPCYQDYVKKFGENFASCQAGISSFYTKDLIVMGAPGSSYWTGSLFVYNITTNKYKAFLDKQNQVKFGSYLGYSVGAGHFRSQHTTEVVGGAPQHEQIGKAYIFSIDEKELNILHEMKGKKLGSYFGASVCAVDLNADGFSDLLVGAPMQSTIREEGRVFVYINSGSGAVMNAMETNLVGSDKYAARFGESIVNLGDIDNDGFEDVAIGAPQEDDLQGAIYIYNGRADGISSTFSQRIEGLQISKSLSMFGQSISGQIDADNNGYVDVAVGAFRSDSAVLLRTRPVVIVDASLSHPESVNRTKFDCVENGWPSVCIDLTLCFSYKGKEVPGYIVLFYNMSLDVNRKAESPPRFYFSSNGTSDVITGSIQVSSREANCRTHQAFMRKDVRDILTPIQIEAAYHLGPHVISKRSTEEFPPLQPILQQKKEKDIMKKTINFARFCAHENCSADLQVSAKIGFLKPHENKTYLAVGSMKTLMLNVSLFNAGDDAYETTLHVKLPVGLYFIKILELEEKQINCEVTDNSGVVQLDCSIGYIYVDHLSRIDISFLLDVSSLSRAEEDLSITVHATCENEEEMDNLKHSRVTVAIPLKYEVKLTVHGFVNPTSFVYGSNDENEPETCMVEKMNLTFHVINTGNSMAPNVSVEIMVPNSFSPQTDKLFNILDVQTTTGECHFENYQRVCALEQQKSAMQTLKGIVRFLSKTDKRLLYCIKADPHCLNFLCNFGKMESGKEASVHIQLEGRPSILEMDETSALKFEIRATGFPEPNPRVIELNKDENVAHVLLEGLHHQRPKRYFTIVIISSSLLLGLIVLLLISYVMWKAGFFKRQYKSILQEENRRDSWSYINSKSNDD
Chain of α4β7 integrin (P26010 20-798): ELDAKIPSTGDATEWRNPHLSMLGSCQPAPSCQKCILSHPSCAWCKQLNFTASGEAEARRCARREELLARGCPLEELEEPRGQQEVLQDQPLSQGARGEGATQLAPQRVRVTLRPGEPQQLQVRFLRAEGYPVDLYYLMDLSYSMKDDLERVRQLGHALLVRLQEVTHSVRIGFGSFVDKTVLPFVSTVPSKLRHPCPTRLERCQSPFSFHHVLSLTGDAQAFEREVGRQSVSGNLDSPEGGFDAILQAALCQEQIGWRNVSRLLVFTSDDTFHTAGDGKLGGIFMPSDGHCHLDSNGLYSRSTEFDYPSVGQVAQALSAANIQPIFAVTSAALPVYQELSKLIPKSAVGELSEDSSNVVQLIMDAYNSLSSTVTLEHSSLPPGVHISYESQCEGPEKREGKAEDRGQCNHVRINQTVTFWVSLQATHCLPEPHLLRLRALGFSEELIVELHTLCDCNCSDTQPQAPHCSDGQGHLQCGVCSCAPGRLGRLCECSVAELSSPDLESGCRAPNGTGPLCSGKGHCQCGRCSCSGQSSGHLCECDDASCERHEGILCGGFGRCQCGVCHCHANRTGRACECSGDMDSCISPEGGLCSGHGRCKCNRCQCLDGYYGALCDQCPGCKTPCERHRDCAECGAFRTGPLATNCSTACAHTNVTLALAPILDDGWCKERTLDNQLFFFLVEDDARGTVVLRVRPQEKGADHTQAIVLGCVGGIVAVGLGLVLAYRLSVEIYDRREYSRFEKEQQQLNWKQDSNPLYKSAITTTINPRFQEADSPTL

Row | Structure (SMILES) | EC50 [1] [nM] | EC50 [3] [nM] | further results
1 | Cc1cc(C(F)(F)F)c(-c2ccc(C[C@H](NC(=O)c3c(F)cc(N4CCO[C@@H](C)[C@H]4C(F)(F)F)cc3F)C(=O)O)c3cccnc23)c(=O)n1C [Example 227] | 1.1 | – | –
2 | COc1c(-c2ccc(C[C@H](NC(=O)c3c(F)cc(N4CCOC[C@H]4C(F)(F)F)cc3F)C(=O)O)c3cccnc23)c(=O)n(C)c2ccccc12 [Example 205] | 1.7 | – | –
3 | Cc1cc(C(F)(F)F)c(-c2ccc(C[C@H](NC(=O)c3c(F)cc(N4CCOC[C@@H]4C(F)(F)F)cc3C3CC3)C(=O)O)c3cccnc23)c(=O)n1C [Example 463] | – | – | EC50 [2]: 0.205 nM
4 | Cc1cc(N2CCOC[C@@H]2C(F)(F)F)cc(F)c1C(=O)N[C@@H](Cc1ccc(-c2c(C)nc(C)n(C)c2=O)c2ncccc12)C(=O)O [Example 460] | – | – | EC50 [2]: 0.15 nM
5 | N#Cc1ccc(-c2ccc(C[C@H](NC(=O)c3c(F)cc(N4CCC[C@@H]4C(F)(F)F)cc3F)C(=O)O)c3cccnc23)c(Cl)c1 [Example 76, (S)-3-(8-(2-chloro-4-cyanophenyl)quinolin-5-yl)-2-(2,6-difluoro-4-((R)-2-(trifluoromethyl)pyrrolidin-1-yl)benzamido)propanoic acid] | – | 78.4 | –
6 | Cc1cc(N2CCOC3(CC3)C2)cc(F)c1C(=O)N[C@@H](Cc1ccc(-c2c(C(F)(F)F)cc(C)n(C)c2=O)c2ncccc12)C(=O)O [Example 466] | – | – | EC50 [2]: 0.581 nM
7 | CC[C@@H](Nc1cc(F)c(C(=O)N[C@@H](Cc2ccc(-c3ncccc3N(C)C)c3ncccc23)C(=O)O)c(F)c1)C(F)(F)F [Example 315] | 13.6 | – | –
8 | CC[C@@H](Nc1cc(F)c(C(=O)N[C@@H](Cc2ccc(-c3c(C)n(C)c(=O)n(C)c3=O)c3ncccc23)C(=O)O)c(F)c1)C(F)(F)F [Example 114, (S)-2-(2,6-difluoro-4-(((R)-1,1,1-trifluorobutan-2-yl)amino)benzamido)-3-(8-(1,3,6-trimethyl-2,4-dioxo-1,2,3,4-tetrahydropyrimidin-5-yl)quinolin-5-yl)propanoic acid] | – | 0.6 | –
9 | N#Cc1ccc(-c2ccc(C[C@H](NC(=O)c3c(F)cc(N4CCC4C(F)(F)F)cc3F)C(=O)O)c3cccnc23)c(Cl)c1 (stereo partly drawn) [Example 78, (2S)-3-(8-(2-chloro-4-cyanophenyl)quinolin-5-yl)-2-(2,6-difluoro-4-(2-(trifluoromethyl)azetidin-1-yl)benzamido)propanoic acid] | – | 134 | –
10 | CC[C@@H](Nc1cc(F)c(C(=O)N[C@@H](Cc2ccc(-c3nc(C)cn(C)c3=O)c3ncccc23)C(=O)O)c(F)c1)C(F)(F)F [Example 209] | 1.9 | – | –
11 | N#Cc1ccc(-c2ccc(C[C@H](NC(=O)c3c(F)cc(NS(=O)(=O)c4ccccc4)cc3F)C(=O)O)c3cccnc23)c(Cl)c1 [Example 46, (S)-3-(8-(2-chloro-4-cyanophenyl)quinolin-5-yl)-2-(2,6-difluoro-4-(phenylsulfonamido)benzamido)propanoic acid] | – | 20 | –
12 | O=C(N[C@H](C(=O)O)[C@@H](O)c1ccc(-c2c(Cl)cc(F)cc2Cl)c2ncccc12)c1c(F)cccc1F [Example 279] | 82.4 | – | –
13 | Cc1cc(C(F)(F)F)c(-c2ccc(C[C@H](NC(=O)c3c(F)cc(N4CCO[C@@H](C)C4)cc3F)C(=O)O)c3cccnc23)c(=O)n1C [Example 181] | 0.7 | – | –
14 | O=C(N[C@@H](Cc1ccc(-c2ncccn2)c2ncccc12)C(=O)O)c1c(F)cc(NS(=O)(=O)c2ccc(-c3ccnc(F)c3)cc2)cc1F [Example 58, (S)-2-(2,6-difluoro-4-((4-(2-fluoropyridin-4-yl)phenyl)sulfonamido)benzamido)-3-(8-(pyrimidin-2-yl)quinolin-5-yl)propanoic acid] | – | 2 | –
15 | CCOCc1cc(OC)c(-c2ccc(C[C@H](NC(=O)c3c(Cl)cc4cc[nH]c4c3Cl)C(=O)O)c3cccnc23)c(OC)c1 [Example 219] | 2.1 | – | –
16 | Cc1nc(-c2ccc(C[C@H](NC(=O)c3c(F)cc(N4CCOC[C@H]4C(F)(F)F)cc3F)C(=O)O)c3cccnc23)c(=O)n(C)c1C [Example 255] | 3.4 | – | –
17 | CN(C)c1ccnc(-c2ccc(C[C@H](NC(=O)c3c(F)cc(N4CCOC[C@@H]4C(F)(F)F)cc3F)C(=O)O)c3cccnc23)c1C(F)(F)F [Example 105, (S)-2-(2,6-difluoro-4-((R)-3-(trifluoromethyl)morpholino)benzamido)-3-(8-(4-(dimethylamino)-3-(trifluoromethyl)pyridin-2-yl)quinolin-5-yl)propanoic acid] | – | 4.1 | –
18 | Cc1cc(C(F)(F)F)c(-c2ccc(C[C@H](NC(=O)c3c(F)cc(N4CCc5ccccc5[C@@H]4C(F)(F)F)cc3F)C(=O)O)c3cccnc23)c(=O)n1C [Example 472] | – | – | EC50 [2]: 0.331 nM
19 | C[C@H](NC(=O)c1cc(F)c(C(=O)N[C@@H](Cc2ccc(-c3ccc(C#N)cc3Cl)c3ncccc23)C(=O)O)c(F)c1)c1ccccc1 [Example 162] | 53.5 | – | –
20 | C[C@@H](Nc1cc(F)c(C(=O)N[C@@H](Cc2ccc(-c3cn(C)c(=O)n(C)c3=O)c3ncccc23)C(=O)O)c(F)c1)C(F)(F)F [Example 211] | 1.9 | – | –

Row | Structure (SMILES) | EC50 [1] [nM] | EC50 [3] [nM] | further results
21 | N#Cc1ccc(-c2ccc(C[C@H](NC(=O)c3c(F)cc(N4CCOCC4)cc3F)C(=O)O)c3cccnc23)c(Cl)c1 [Example 79, (S)-3-(8-(2-chloro-4-cyanophenyl)quinolin-5-yl)-2-(2,6-difluoro-4-morpholinobenzamido)propanoic acid] | – | 26.1 | –
22 | CCOc1ccnc(-c2ccc(C[C@H](NC(=O)c3c(F)cc(N4CCOC[C@@H]4C(F)(F)F)cc3F)C(=O)O)c3cccnc23)c1C(F)(F)F [Example 193] | 1.4 | – | –
23 | Cc1cc(N2CCOC[C@@H]2C(F)(F)F)cc(F)c1C(=O)N[C@@H](Cc1ccc(-c2ccc(C)n(C)c2=O)c2ncccc12)C(=O)O [Example 444] | – | – | EC50 [2]: 0.161 nM
24 | N#Cc1ccc(-c2ccc(C[C@H](NC(=O)c3c(F)cc(C(=O)NC4CC4)cc3F)C(=O)O)c3cccnc23)c(Cl)c1 [Example 197] | 63.4 | – | –
25 | CC[C@@H](Nc1cc(F)c(C(=O)N[C@@H](Cc2ccc(-c3c(C(F)(F)F)cc(C4CC4)n(C)c3=O)c3ncccc23)C(=O)O)c(F)c1)C(F)(F)F [Example 163] | 0.4 | – | –
26 | CC[C@@H](Nc1cc(F)c(C(=O)N[C@@H](Cc2ccc(-c3nc(C)c(C)n(C)c3=O)c3ncccc23)C(=O)O)c(F)c1F)C(F)(F)F [Example 456] | – | – | EC50 [2]: 0.248 nM
27 | CC(O)(c1cc(F)c(C(=O)N[C@@H](Cc2ccc(-c3ccc(C#N)cc3Cl)c3ncccc23)C(=O)O)c(F)c1)C(F)(F)F (stereo partly drawn) [Example 280] | 86.1 | – | –
28 | N#Cc1ccc(-c2ccc(C[C@H](NC(=O)c3c(F)cccc3F)C(=O)O)c3cccnc23)c(Cl)c1 [Example 3, (S)-3-(8-(2-chloro-4-cyanophenyl)quinolin-5-yl)-2-(2,6-difluorobenzamido)propanoic acid] | – | 63.8 | –
29 | CC[C@@H](Nc1cc(F)c(C(=O)N[C@@H](Cc2ccc(-c3nccc(C)c3Cl)c3ncccc23)C(=O)O)c(F)c1)C(F)(F)F [Example 325] | 18.8 | – | –
30 | CC[C@@H](Nc1cc(F)c(C(=O)N[C@@H](Cc2ccc(-c3c(C)c(C(F)(F)F)cn(C)c3=O)c3ncccc23)C(=O)O)c(F)c1)C(F)(F)F [Example 188] | 1.2 | – | –
31 | Cc1ccnc(-c2ccc(C[C@H](NC(=O)c3c(F)cc(N4CCOC[C@@H]4C(F)(F)F)cc3F)C(=O)O)c3cccnc23)c1N(C)C [Example 212] | 1.9 | – | –
32 | Cc1cc(N2CCOC[C@@H]2C(F)(F)F)cc(F)c1C(=O)N[C@@H](Cc1ccc(-c2c(C)c(Cl)cn(C)c2=O)c2ncccc12)C(=O)O [Example 451] | – | – | EC50 [2]: 0.208 nM
33 | CC[C@@H](Nc1cc(F)c(C(=O)N[C@H](Cc2ccc(-c3c(C(F)(F)F)cc(C)n(C)c3=O)c3ncccc23)C(=O)O)c(F)c1)C(F)(F)F [Example 253] | 3.2 | – | –
34 | N#Cc1ccc(-c2ccc(C[C@H](NC(=O)c3c(F)cc(N[C@@H](C4CC4)C(F)(F)F)cc3F)C(=O)O)c3cccnc23)c(Cl)c1 [Example 148] | – | 60.6 | –
35 | CC[C@@H](Nc1cc(F)c(C(=O)N[C@@H](Cc2ccc(-c3c(C(F)(F)F)c4ccccc4n(C)c3=O)c3ncccc23)C(=O)O)c(F)c1)C(F)(F)F [Example 123, (S)-2-(2,6-difluoro-4-(((R)-1,1,1-trifluorobutan-2-yl)amino)benzamido)-3-(1-methyl-2-oxo-4-(trifluoromethyl)-1,2-dihydro-[3,8′-biquinolin]-5′-yl)propanoic acid] | – | 0.9 | –
36 | Cc1[nH]c2cc(Cl)c(C(=O)N[C@@H](Cc3ccc(-c4ccc(C#N)cc4Cl)c4ncccc34)C(=O)O)c(Cl)c2c1C [Example 174] | 97.8 | – | –
37 | Cc1cc(C(F)(F)F)c(-c2ccc(C[C@H](NC(=O)c3c(F)cc(N4CCOC[C@@H]4CC(F)(F)F)cc3F)C(=O)O)c3cccnc23)c(=O)n1C [Example 131, (S)-2-(2,6-difluoro-4-((S)-3-(2,2,2-trifluoroethyl)morpholino)benzamido)-3-(8-(1,6-dimethyl-2-oxo-4-(trifluoromethyl)-1,2-dihydropyridin-3-yl)quinolin-5-yl)propanoic acid] | – | 0.8 | –
38 | Cc1cc(C(F)(F)F)c(-c2ccc(C[C@H](NC(=O)c3c(F)cc(N4CCOC[C@@H]4C(F)(F)F)cc3F)C(=O)O)c3cc(N(C)C)cnc23)c(=O)n1C [Example 281] | 5.5 | – | –
39 | Cc1cc(C(F)(F)F)c(-c2ccc(C[C@H](NC(=O)c3c(F)cccc3F)C(=O)O)c3cccnc23)nc1C [Example 12, (S)-2-(2,6-difluorobenzamido)-3-(8-(5,6-dimethyl-3-(trifluoromethyl)pyridin-2-yl)quinolin-5-yl)propanoic acid] | – | 7 | –
